Data taken from PubChem BioAssay AID1645864 (Buhrlage Lab, Dana-Farber Cancer Institute and Novartis …, 2021).
Activity calls are given as the source filed them.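 The calls were made as follows: active = maximal inhibition of USP17 at or above 30% in the confirmation dose-response, a value not among the printed readouts; inactive = the rest.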

Target: Ubiquitin carboxyl-terminal hydrolase 17-like protein 5 (Homo sapiens) (UniProt A8MUK1)
Assay: ubiquitin-specific protease 17 DUB inhibitors, concentration-effect assay, cell-free, verification of initial screening actives (AID 1645864)
Conditions: purified USP17, ubiquitin-rhodamine cleavage fluorescence, 3 h

Sequence of Ubiquitin carboxyl-terminal hydrolase 17-like protein 5 (Homo sapiens) (A8MUK1 whole entry, looked up): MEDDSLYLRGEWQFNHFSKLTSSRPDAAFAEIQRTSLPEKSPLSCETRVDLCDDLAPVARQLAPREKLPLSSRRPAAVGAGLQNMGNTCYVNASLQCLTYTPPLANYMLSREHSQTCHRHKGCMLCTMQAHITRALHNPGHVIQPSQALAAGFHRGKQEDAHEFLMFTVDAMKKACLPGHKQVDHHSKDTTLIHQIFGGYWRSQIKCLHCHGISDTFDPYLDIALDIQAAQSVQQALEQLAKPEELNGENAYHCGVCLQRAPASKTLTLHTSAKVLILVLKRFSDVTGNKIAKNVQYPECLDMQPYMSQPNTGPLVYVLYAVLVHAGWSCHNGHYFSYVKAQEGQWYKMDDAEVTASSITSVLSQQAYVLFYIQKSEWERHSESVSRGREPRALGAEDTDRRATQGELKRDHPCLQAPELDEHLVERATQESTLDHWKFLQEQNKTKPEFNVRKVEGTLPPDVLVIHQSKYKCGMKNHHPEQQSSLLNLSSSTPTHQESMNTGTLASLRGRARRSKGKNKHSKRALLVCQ

Row | IC50 | SMILES
1 | 27.2 µM | Cc1ccc2nc(CNC(=O)c3ccccc3-c3nc(-c4ccc(F)cc4)no3)[nH]c2c1
2 | 5.33 µM | CC(Nc1ncnc2c1sc1nc(N3CCOCC3)c3c(c12)CCC3)c1ccccc1 (stereo not given)
3 | > 50 µM (inactive) | COc1cccc2cc(C(=O)Nc3ccc4c(c3)OCCO4)oc12
4 | > 50 µM (inactive) | O=S(=O)(c1ccc2c(c1)OCCO2)N(Cc1ccccc1)Cc1nnc(-c2ccccc2)o1
5 | > 50 µM (inactive) | COc1ccc2nc(Nc3nc(-c4cnc(N5CCOCC5)nc4C)cc(=O)[nH]3)nc(C)c2c1
6 | 4.66 µM | O=C(Cn1c(=O)n(CC(=O)NC2CCCC2)c(=O)c2ccccc21)Nc1cc(Cl)ccc1Cl
7 | 8.3 µM | Cc1ccc(NC(=O)/C=C/c2cccc(C(F)(F)F)c2)c(O)c1
8 | > 50 µM (inactive) | O=c1c(-c2nc(C3CC3)no2)cccn1Cc1c(F)cccc1Cl
9 | 11.4 µM | O=C(CC(C(=O)Nc1ccc2c(c1)OCO2)C(=O)c1ccccc1)Nc1ccc(Cl)cc1F (stereo not given)
10 | 3.15 µM | O=C(NCc1ccc2c(c1)OCO2)c1cc(-c2cc(Cl)ccc2O)n[nH]1
11 | > 50 µM (inactive) | O=C(Nc1ccc(SCc2nnc(-c3ccccc3)o2)cc1)C1CC1
12 | 2.91 µM | CCn1cc2c(n1)c(=O)n(Cc1ccccc1)c(=O)n2CC(=O)Nc1ccc(OC)cc1
13 | 12.1 µM | O=C(Cn1c(-c2ccccc2)ncc(C(=O)NC2CC2)c1=O)Nc1ccccc1
14 | > 50 µM (inactive) | Cc1c2c(nc3ccccc13)-c1ccccc1CC2
15 | > 50 µM (inactive) | Cc1c(Cl)cccc1NC(=O)Cn1c(=O)c2ccccc2n2nncc12
16 | > 50 µM (inactive) | Cc1c(C(=O)c2ccccc2)c2ccccn2c1CCc1ccccn1
17 | 5.81 µM | COc1ccc(Cl)cc1NC(=O)Cn1c(=O)cc(C)c2c(C)nn(-c3ccccc3)c21
18 | 18.8 µM | COc1ccc(CN=C2NS(=O)(=O)C(c3ccc(F)cc3)=C2C)cc1OC
19 | > 50 µM (inactive) | COc1ccc2c(c1)c(N1CCCC1=O)c(C(=O)NCc1cccc(OC)c1OC)n2C
20 | > 5 µM (inactive) | O=C(NCCCN1CCc2ccccc2C1)c1cc2c(s1)CS(=O)(=O)C2
21 | > 50 µM (inactive) | Cc1ccc2c(=O)c3c([nH]c2c1C)CCN(CC(=O)NCc1ccccc1)C3
22 | > 50 µM (inactive) | O=C(Cc1c[nH]c2ccccc12)Nc1nc2ccccc2s1
23 | 18.1 µM | O=C(Cc1noc2ccccc12)NCC(=O)Nc1ccc(Cl)cc1
24 | 25.2 µM | CC(C)NC(=O)CN1C(=O)CC(C)Sc2ccc(S(=O)(=O)N3CCCCC3)cc21 (stereo not given)
25 | 35.6 µM | O=C1Nc2ccccc2C(=O)C1C(c1ccc(Cl)cc1)C1C(=O)Nc2ccccc2C1=O (stereo not given)

Row | IC50 | SMILES
26 | > 50 µM (inactive) | Fc1ccc(CSc2nnc(-c3ccccn3)n2Cc2ccco2)cc1
27 | > 50 µM (inactive) | Cc1ccc(S(=O)(=O)Nc2ccccc2SCCS(=O)(=O)c2ccc(Cl)cc2)cc1
28 | 16.8 µM | O=C(Nc1cccc(OC(=O)c2ccc(Cl)cc2)c1)c1ccc(Cl)cc1
29 | 6.27 µM | CN(C)c1ccc(/C=N/NC(=O)c2ccc(Cl)cc2)cc1
30 | 35.6 µM | CC1CS(=O)(=O)N(c2ccc(C(=O)Nc3ccc4c(c3)OCCO4)cc2)C1=O (stereo not given)
31 | > 50 µM (inactive) | Cc1c(C(=O)Nc2ccc(-c3nnc4n3CCCCC4)cc2)oc2c1ccc1ccccc12
32 | 26.4 µM | CC(C)C(=O)Nc1ccc(N2CCN(Cc3ccc(F)cc3)C2=O)nc1
33 | > 50 µM (inactive) | CN[C@H]1CC2(CCN(C(=O)CCCn3cccn3)CC2)OC[C@]1(C)O
34 | 42.7 µM | CC(C)c1ccc(NC(=O)COC(=O)c2ccc3[nH]c4c(c3c2)CCCC4)cc1
35 | 17.4 µM | O=C(/C=C/c1ccc2c(c1)OCO2)Nc1nc2c(s1)COCC2
36 | > 50 µM (inactive) | Cc1nc(Nc2c3ccccc3nc3ccccc23)sc1C
37 | > 50 µM (inactive) | O=C(C1CCCN(S(=O)(=O)N2CCCCCC2)C1)N1CCN(c2ccccc2)CC1 (stereo not given)
38 | > 50 µM (inactive) | CN1CCN(C(=O)c2ccn(-c3ccc4ccc(-c5cnn(C)c5)cn34)n2)CC1
39 | 16 µM | O=C(Cn1cccc1-c1nc(-c2ccccc2)cs1)N1CCOCC1
40 | 26.1 µM | COc1cc(OC)cc(-n2c(=O)c3sccc3n(CC(=O)c3ccc(F)cc3)c2=O)c1
41 | > 50 µM (inactive) | O=C(NC1CCS(=O)(=O)C1)c1ccc(N2CCC(Cc3ccccc3)CC2)nn1 (stereo not given)
42 | 15.4 µM | Cc1cc(C(F)(F)F)n(-c2ccc(NC(=O)Nc3cccc(C(F)(F)F)c3)cc2)n1
43 | 34.1 µM | Cc1cccc(-n2nc(C)c3c2NC(=O)CC3C(=O)c2cc3ccccc3o2)c1 (stereo not given)
44 | 38.9 µM | Cc1ccc2cc(CCNC(=O)c3cccc(Br)c3)c(=O)[nH]c2c1
45 | > 50 µM (inactive) | Cc1ccc2nc(N3CCc4ccccc4C3)c3nncn3c2c1
46 | 10.7 µM | CCc1ccc(Nc2cc(C(=O)NCCCOC(C)C)c3ccccc3n2)cc1
47 | > 50 µM (inactive) | COc1ccc(-c2nc(C)c(C(=O)NCc3ccc(S(N)(=O)=O)cc3)s2)cc1
48 | 29.8 µM | Cc1ccc(NC(=O)CSc2nc3c(cc2C#N)C(=O)CCC3)cc1
49 | 27.7 µM | COc1ccc(NC(=O)c2sc(N3CCOCC3)nc2-c2ccccc2)c(OC)c1
50 | > 50 µM (inactive) | CCc1ccc(C(C)NC(=O)C2CCN(c3ccc4nncn4n3)CC2)cc1 (stereo not given)

Row | IC50 | SMILES
51 | > 50 µM (inactive) | O=C(c1ccc(COc2cccc3ccccc23)o1)N1CCC(Cc2ccccc2)CC1
52 | > 50 µM (inactive) | Cc1nc(-c2ccc(NC(=O)N3CCN(c4ccccn4)CC3)cc2)no1
53 | 2.25 µM | CC(NC(=O)c1ccccc1)c1nc2ccccc2n1CC(=O)Nc1ccc2c(c1)OCO2 (stereo not given)
54 | > 50 µM (inactive) | CC(C)NS(=O)(=O)c1ccc(OCC(=O)N2CCC(Cc3ccccc3)CC2)cc1
55 | 15.4 µM | COc1cc(O)c2c(=O)c(-c3ccc(O)cc3)coc2c1
56 | 14.5 µM | COc1ccc(NC(=O)C2Oc3ccc(C)cc3NC2=O)cc1Cl (stereo not given)
57 | > 50 µM (inactive) | COC(=O)c1cc2c(ccn2C)n1CC(=O)NC1CCCC1
58 | > 50 µM (inactive) | O=C1C/C(=C\c2cccc(Cl)c2)Cc2ccccc21
59 | 26.1 µM | COc1ccc(NC(=O)CN2C(=O)c3ccccc3Sc3ccc(C(=O)N4CCCC4)cc32)cc1OC
60 | 2.96 µM | Cc1ccccc1C(=O)c1ccc(C(=O)NC2CCCCCC2)[nH]1
61 | 18.6 µM | CCC(=O)Nc1ccccc1-c1nc2ccccc2n(CC(=O)Nc2cc(OC)ccc2OC)c1=O
62 | 30.5 µM | CCc1noc(-c2ccc(OCC(=O)Nc3ccc(C)cc3C)cc2)n1
63 | > 50 µM (inactive) | Cn1nc(-c2nc(-c3ccccc3)no2)c2c1CCN(C(=O)C1CC1)C2
64 | > 50 µM (inactive) | CCN1C(SCc2ccccc2F)=NS(=O)(=O)c2ccccc21
65 | 36.3 µM | O=C(c1ccc(Cl)cc1)c1c[nH]cc1-c1c(F)cccc1Cl
66 | 35.2 µM | O=C(COc1cccc2c1CCN(Cc1cccnc1)C2=O)Nc1ccc2c(c1)OCCO2
67 | 0.567 µM | COc1ccccc1-c1nc2c3c(C)c(C)n(-c4ccc(Br)cn4)c3ncn2n1
68 | 25.2 µM | COc1ccc2c(c1)CCc1c(C(=O)NCc3cccnc3)noc1-2
69 | 5.7 µM | CC1(C)OC2=C(C(=O)c3cc(O)cc(O)c3C2=O)c2cc(CO)c(O)cc21
70 | > 50 µM (inactive) | CC(=O)N1CCOc2cc(S(=O)(=O)N3CCCC3c3cc(C)no3)ccc21 (stereo not given)
71 | > 50 µM (inactive) | CN(C)C1CCN(C(=O)c2cc(-c3ccn(-c4ccccc4)n3)n3ccccc23)CC1
72 | 1.42 µM | C/C=C1/C2=CCCN3C(=O)O[C@H]([C@H]1O)[C@H]23
73 | 29.7 µM | COCCCNC(=O)c1ccc(Cn2c(=O)c3ccccc3n(CC(=O)Nc3ccc(OC)cc3)c2=O)cc1
74 | 44.9 µM | CC1(C)Cc2nc3sc4c(=O)n(CC(=O)NCc5ccccc5)cnc4c3cc2CO1
75 | > 50 µM (inactive) | CS(=O)(=O)N1CCc2cc(C(=O)Nc3ccc(Cc4ccncc4)cc3)ccc21

Row | IC50 | SMILES
76 | > 50 µM (inactive) | CC1CCc2c(sc3ncnc(OCc4cccc([N+](=O)[O-])c4)c23)C1 (stereo not given)
77 | > 50 µM (inactive) | COc1ccccc1-c1ccc(SCC(=O)Nc2ccc3c(c2)OCCO3)nn1
78 | 31.2 µM | O=C(Cc1cccs1)Nc1cc(F)c2nc(N3CCOCC3)ccc2c1
79 | 29.1 µM | O=C(Cn1cc(C(=O)C2CC2)c2ccccc21)NCc1ccc2c(c1)OCO2
80 | 8.32 µM | Cc1ccc(O)c(-c2cc(C(=O)Nc3ccccc3Cl)[nH]n2)c1
81 | > 50 µM (inactive) | O=C(c1ccc2ncccc2c1)N1CCC2(C1)Nc1cccnc1NC2=NC1CCCC1 (stereo not given)
82 | > 50 µM (inactive) | COc1ccc(-c2cc(-c3ccc(O)cc3)nc(N)c2C#N)cc1OC
83 | 34.4 µM | CCn1c(SCC(=O)N2c3ccccc3CC2C)nnc1-c1ccc2c(c1)OCCO2 (stereo not given)
84 | 11.9 µM | O=C1C=C(O)c2c(O)cccc2C1=O
85 | 2.85 µM | CC(c1ccccc1)n1c(-c2ccc(F)cc2)nc2c(c(=O)c3ccccc3n2C)c1=O (stereo not given)
86 | 4.91 µM | O=C1c2ccccc2-n2c1nc1ccccc1c2=O
87 | 2.35 µM | CC1(C)Cc2c(sc3nc(Cc4ccccc4)nc(SCC(=O)Nc4ccccc4)c23)CO1
88 | 33.5 µM | COCCNC(=O)Cn1c(=O)n(Cc2ccccc2)c(=O)c2c3c(sc21)CCC3
89 | 37.2 µM | Cc1nc(-c2cccc(NC(=O)C3CCN(c4ccccc4)C3=O)c2)no1 (stereo not given)
90 | 27.5 µM | CCc1ccc(-n2nc(C)c3c2NC(=O)CC3C(=O)c2ccc3c(c2)OCCO3)cc1 (stereo not given)
91 | 19.1 µM | O=C(COc1ccc2c(c1)CCC2)Nc1ccc2c(c1)CCC2
92 | 29.7 µM | O=C(CCCC(=O)c1ccccc1)Nc1ccc(F)cc1
93 | > 50 µM (inactive) | O=C(Nc1ccc2c(c1)OCCO2)C1CCN(C(=O)c2ccccc2)CC1
94 | 22.8 µM | CCCCCCCCCC(CCCCCCCCCC(=O)O)O[C@H]1O[C@@H](COC(C)=O)[C@H](O)[C@@H](O)[C@H]1OC(=O)CC(=O)O (stereo not given in full)
95 | 3.57 µM | Cc1ccc(-n2c(=O)c3ccccc3n(Cc3c(F)cccc3Cl)c2=O)cc1
96 | > 50 µM (inactive) | Cc1cnc2nc3c(cc2c1)CN(CCc1ccc(Cl)cc1)CC3
97 | > 50 µM (inactive) | Cn1cccc1C(=O)N1CCCC2(C1)Nc1cccnc1NC2=NC1CCCC1 (stereo not given)
98 | > 50 µM (inactive) | CCCN1CCN(C(=O)c2cc(NC(=O)C3CCC3)cc3nc(C)ccc23)CC1

Row | SMILES | IC50
99 | CO[C@H]1[C@@H](O)[C@H](C)O[C@H](O[C@H]2[C@H](Oc3cccc4c(O)c5c(=O)oc6ccc(C)c7c(=O)oc(c34)c5c67)O[C@H](C)[C@H](O)[C@@H]2O)[C@@H]1O | > 50 µM (inactive)
100 | Fc1ccc(CN2CCc3nc4cccnc4cc3C2)cc1 | > 50 µM (inactive)
